According to patent publication US7371207B2 (Wyeth, priority 2002, dated 2008):

Tested on: gene expression in the kidney
Test: GeneChip microarray survey of E2 regulated gene expression, kidney
Conditions: for E2: Study 2 ERbKO; for Study 1 E2 Expr (/evansm/Kidney, mouse/Study 1, U74v2/KO E2 kidney (81038)) / E2 Expr (/evansm/Kidney, mouse/Study 2, U74v2/ER bKO kidney E2 (82412)): ERbKO
Description: FIG. 1 depicts a pattern analysis generated by a GeneChip microarray analysis. […] Two hours following the final dose, the mice were euthanized and 13 tissues removed for RNA preparation. Two independent studies were performed, with total RNA pooled from two groups of three animals for each condition. Gene expression was quantified by GeneChip microarrays using murine U74 sub A arrays. Data were analyzed for patterns indicating either ERα or ERβ dependent regulation as shown. […] The number of genes in each tissue that matched the theoretical induction (↑) or repression (↓) patterns for ERα or ERβ are indicated.
FIGS. 2A-2C show a series of bar graphs showing gene expression levels of known genes regulated in the kidney in an ERα pattern. […] Expression was measured in two independent sets of animals, with two groups of animals for each treatment in each study. A gene name abbreviation is shown above each graph, with the corresponding Unigene designation shown below.
One week later, the animals were ovariectomized.
GeneChip—Total RNA was prepared separately from each individual organ by using Trizol (Invitrogen) followed by subsequent repurification on Rneasy columns (Qiagen). In general, two pools of RNA were created using equal amounts of RNA from three mice. For small organs such as pituitary, an equal amount of RNA from six animals was combined.
Target Preparation and Array Hybridization—Total RNA was used to generate biotin labeled cRNA target as described (8) which was hybridized to the murine MG_U74Av2 probe arrays (Affymetrix, Santa Clara, Calif.) for 16 h at 45° C. Eleven biotin-labeled cRNAs at defined concentration were spiked into each hybridization and used to convert average difference values to frequencies expressed as parts per million.
The resulting data set was queried for genes whose regulation was dependent on ERα or ERβ.

[1] = 1st line of INDUCTIONS (by order 100060_l_at, kallikrein 8)
[2] = 2nd line of INDUCTIONS (by order 100061_f_at, kallikrein 8)
[3] = 3rd line of INDUCTIONS (by order 95775_f_at, kallikrein 1)
[4] = 4th line of INDUCTIONS (by order 104495_f_at, kallikrein 5)
[5] = 5th line of INDUCTIONS (by order 94716_f_at, kallikrein 9)
[6] = 6th line of INDUCTIONS (by order 100422_f_at, signal transducer and activator of transcription 5A)
[7] = 7th line of INDUCTIONS (by order 100423_f_at, signal transducer and activator of transcription 5A)
[8] = 8th line of INDUCTIONS (by order 101289_f_at, M17979)

With `C[C@]12CC[C@@H]3c4ccc(O)cc4CC[C@H]3[C@@H]1CC[C@@H]2O` [E2, 17β-estradiol] the E2 [1] was 37, the “Study 1 E2 Expr (/evansm/Kidney, mouse/Study 1, U74v2/KO E2 kidney (81038))” value [1] was 37 and the “E2 Expr (/evansm/Kidney, mouse/Study 2, U74v2/ER bKO kidney E2 (82412))” value [1] was 44. For the same compound, the “E2 Expr (/evansm/Kidney, mouse/Study 2, U74v2/WT kidney E2 (82408))” value [1] was 40, the “E2 Expr (/evansm/Kidney, mouse/Study 2, U74v2/WT kidney E2 (82409))” value [1] was 31 and the E2 [2] was 297. For the same compound, the “Study 1 E2 Expr (/evansm/Kidney, mouse/Study 1, U74v2/KO E2 kidney (81038))” value [2] was 370, the “E2 Expr (/evansm/Kidney, mouse/Study 2, U74v2/ER bKO kidney E2 (82412))” value [2] was 359 and the “E2 Expr (/evansm/Kidney, mouse/Study 2, U74v2/WT kidney E2 (82408))” value [2] was 338. For the same compound, the “E2 Expr (/evansm/Kidney, mouse/Study 2, U74v2/WT kidney E2 (82409))” value [2] was 201, the E2 [3] was 291 and the “Study 1 E2 Expr (/evansm/Kidney, mouse/Study 1, U74v2/KO E2 kidney (81038))” value [3] was 333. For the same compound, the “E2 Expr (/evansm/Kidney, mouse/Study 2, U74v2/ER bKO kidney E2 (82412))” value [3] was 361, the “E2 Expr (/evansm/Kidney, mouse/Study 2, U74v2/WT kidney E2 (82408))” value [3] was 345 and the “E2 Expr (/evansm/Kidney, mouse/Study 2, U74v2/WT kidney E2 (82409))” value [3] was 234. The E2 [4] was 130, the “Study 1 E2 Expr (/evansm/Kidney, mouse/Study 1, U74v2/KO E2 kidney (81038))” value [4] was 125 and the “E2 Expr (/evansm/Kidney, mouse/Study 2, U74v2/ER bKO kidney E2 (82412))” value [4] was 163. For the same compound, the “E2 Expr (/evansm/Kidney, mouse/Study 2, U74v2/WT kidney E2 (82408))” value [4] was 145, the “E2 Expr (/evansm/Kidney, mouse/Study 2, U74v2/WT kidney E2 (82409))” value [4] was 89 and the E2 [5] was 302. For the same compound, the “Study 1 E2 Expr (/evansm/Kidney, mouse/Study 1, U74v2/KO E2 kidney (81038))” value [5] was 372, the “E2 Expr (/evansm/Kidney, mouse/Study 2, U74v2/ER bKO kidney E2 (82412))” value [5] was 369 and the “E2 Expr (/evansm/Kidney, mouse/Study 2, U74v2/WT kidney E2 (82408))” value [5] was 329. For the same compound, the “E2 Expr (/evansm/Kidney, mouse/Study 2, U74v2/WT kidney E2 (82409))” value [5] was 230, the E2 [6] was 92 and the “Study 1 E2 Expr (/evansm/Kidney, mouse/Study 1, U74v2/KO E2 kidney (81038))” value [6] was 70. The “E2 Expr (/evansm/Kidney, mouse/Study 2, U74v2/ER bKO kidney E2 (82412))” value [6] was 104, the “E2 Expr (/evansm/Kidney, mouse/Study 2, U74v2/WT kidney E2 (82408))” value [6] was 104 and the “E2 Expr (/evansm/Kidney, mouse/Study 2, U74v2/WT kidney E2 (82409))” value [6] was 73. For the same compound, the E2 [7] was 72, the “Study 1 E2 Expr (/evansm/Kidney, mouse/Study 1, U74v2/KO E2 kidney (81038))” value [7] was 61 and the “E2 Expr (/evansm/Kidney, mouse/Study 2, U74v2/ER bKO kidney E2 (82412))” value [7] was 58. For the same compound, the “E2 Expr (/evansm/Kidney, mouse/Study 2, U74v2/WT kidney E2 (82408))” value [7] was 80, the “E2 Expr (/evansm/Kidney, mouse/Study 2, U74v2/WT kidney E2 (82409))” value [7] was 44 and the E2 [8] was 236. The “Study 1 E2 Expr (/evansm/Kidney, mouse/Study 1, U74v2/KO E2 kidney (81038))” value [8] was 282, the “E2 Expr (/evansm/Kidney, mouse/Study 2, U74v2/ER bKO kidney E2 (82412))” value [8] was 295 and the “E2 Expr (/evansm/Kidney, mouse/Study 2, U74v2/WT kidney E2 (82408))” value [8] was 264. For the same compound, the “E2 Expr (/evansm/Kidney, mouse/Study 2, U74v2/WT kidney E2 (82409))” value [8] was 178, the “E2 Expr (/evansm/Kidney, mouse/Study 1, U74v2/WT E2 kidney (81036))” value (92232_at, U88328, cytokine inducible SH-2 containing protein 3) was 45 and the “E2 Expr (/evansm/Kidney, mouse/Study 1, U74v2/WT E2 kidney (81036))” value (93104_at, Z16410, B-cell translocation gene 1, anti-proliferative) was 14. For the same compound, the “E2 Expr (/evansm/Kidney, mouse/Study 1, U74v2/WT E2 kidney (81036))” value (93374_at, AI836349, junctophilin 3) was 65, the “E2 Expr (/evansm/Kidney, mouse/Study 1, U74v2/WT E2 kidney (81036))” value (94694_at, M69196, proprotein convertase subtillsin/kexin type 1) was 27 and the “E2 Expr (/evansm/Kidney, mouse/Study 1, U74v2/WT E2 kidney (81036))” value (94716_f_at, M17962, kallikrein 9) was 380. The “E2 Expr (/evansm/Kidney, mouse/Study 1, U74v2/WT E2 kidney (81036))” value (94773_at, X01801, nerve growth factor, alpha) was 53, the “E2 Expr (/evansm/Kidney, mouse/Study 1, U74v2/WT E2 kidney (81036))” value (95559_at, AI838836, RIKEN cDNA 6330403K07 gene) was 74 and the “E2 Expr (/evansm/Kidney, mouse/Study 1, U74v2/WT E2 kidney (81036))” value (95775_f_at, V00829, kallikrein 1) was 370. For the same compound, the “E2 Expr (/evansm/Kidney, mouse/Study 1, U74v2/WT E2 kidney (81036))” value (95905_at, AI118078, Mm.24361) was 83, the “E2 Expr (/evansm/Kidney, mouse/Study 1, U74v2/WT E2 kidney (81036))” value (96215_f_at, AI53421, Mm.218360) was 206 and the “E2 Expr (/evansm/Kidney, mouse/Study 1, U74v2/WT E2 kidney (81036))” value (96591_at, U24703, reelin) was 43. For the same compound, the “E2 Expr (/evansm/Kidney, mouse/Study 1, U74v2/WT E2 kidney (81036))” value (96629_at, X04097, similar to TESTOSTERONE-REGULATED RP2 PROTEIN) was 55, the “E2 Expr (/evansm/Kidney, mouse/Study 1, U74v2/WT E2 kidney (81036))” value (97353_at, AI837497, AF9Q34 NGAP-like protein) was 29 and the “E2 Expr (/evansm/Kidney, mouse/Study 1, U74v2/WT E2 kidney (81036))” value (97519_at, X13986, secreted phosphoprotein 1) was 178. For the same compound, the “E2 Expr (/evansm/Kidney, mouse/Study 1, U74v2/WT E2 kidney (81036))” value (97520_s_at, X83569, neuroatin) was 157, the “E2 Expr (/evansm/Kidney, mouse/Study 1, U74v2/WT E2 kidney (81036))” value (98055_at, AW121500, bladder cancer associated protein homolog (human)) was 14 and the “E2 Expr (/evansm/Kidney, mouse/Study 1, U74v2/WT E2 kidney (81036))” value (98437_at, U83720, caspase 3, apoptosis related cysteine protease) was 39. For the same compound, the “E2 Expr (/evansm/Kidney, mouse/Study 1, U74v2/WT E2 kidney (81036))” value (98628_f_at, AF003695, hypoxia inducible factor 1, alpha subunit) was 288, the “E2 Expr (/evansm/Kidney, mouse/Study 1, U74v2/WT E2 kidney (81036))” value (99057_at, M12379, thymus cell antigen 1, theta) was 57 and the “E2 Expr (/evansm/Kidney, mouse/Study 1, U74v2/WT E2 kidney (81036))” value (99127_at, X61506, spinocerebellar ataxia 10 homolog (human)) was 66. For the same compound, the “E2 Expr (/evansm/Kidney, mouse/Study 1, U74v2/WT E2 kidney (81036))” value (99552_at, U79550, slug, chicken homolog) was 19, the “E2 Expr (/evansm/Kidney, mouse/Study 1, U74v2/WT E2 kidney (81036))” value (99632_at, U83902, MAD2 (mitotic arrest deficient, homolog)-like 1 (yeast)) was 27 and the “E2 Expr (/evansm/Kidney, mouse/Study 1, U74v2/WT E2 kidney (81036))” value (100060_l_at, M13500, kallikrein 8) was 39. For the same compound, the “E2 Expr (/evansm/Kidney, mouse/Study 1, U74v2/WT E2 kidney (81036))” value (100061_f_at, M13500, kallikrein 8) was 341, the “E2 Expr (/evansm/Kidney, mouse/Study 1, U74v2/WT E2 kidney (81036))” value (100407_at, L38580, galanin) was 98 and the “E2 Expr (/evansm/Kidney, mouse/Study 1, U74v2/WT E2 kidney (81036))” value (100422_f_at, AJ237939, signal transducer and activator of transcription 5A) was 151. For the same compound, the “E2 Expr (/evansm/Kidney, mouse/Study 1, U74v2/WT E2 kidney (81036))” value (100423_f_at, AJ237939, signal transducer and activator of transcription 5A) was 96, the “E2 Expr (/evansm/Kidney, mouse/Study 1, U74v2/WT E2 kidney (81036))” value (100440_f_at, U76758, ankyrin 1, erythroid) was 119 and the “E2 Expr (/evansm/Kidney, mouse/Study 1, U74v2/WT E2 kidney (81036))” value (100539_at, AI841279, ?HBACH Cytosolic acyl coenzyme A thioester hydrolase) was 16. For the same compound, the “E2 Expr (/evansm/Kidney, mouse/Study 1, U74v2/WT E2 kidney (81036))” value (100681_f_at, V00829) was 123, the “E2 Expr (/evansm/Kidney, mouse/Study 1, U74v2/WT E2 kidney (81036))” value (100719_f_at, J03677, kallikrein 16) was 119 and the “E2 Expr (/evansm/Kidney, mouse/Study 1, U74v2/WT E2 kidney (81036))” value (101289_f_at, M17979) was 305. The “E2 Expr (/evansm/Kidney, mouse/Study 1, U74v2/WT E2 kidney (81036))” value (101737_at, U12932, follicle stimulating hormone beta) was 19, the “E2 Expr (/evansm/Kidney, mouse/Study 1, U74v2/WT E2 kidney (81036))” value (101738_at, U25145, tutetnizing hormone beta) was 578 and the “E2 Expr (/evansm/Kidney, mouse/Study 1, U74v2/WT E2 kidney (81036))” value (101870_at, V00793) was 21.
